Test results from patent US20200222400A1, “METHODS FOR THE TREATMENT OF NEUROLOGICAL DISORDERS” (Yumanity Therapeutics, Inc., priority 2019, published 2020).

What was measured:
yeast OLE1 = target: T1, yeast OLE1 (Saccharomyces cerevisiae, UniProt P21147); assay: Growth of yeast surviving solely on yeast OLE1; assay type: cell-based; conditions: percent of DMSO-treated condition
T1 construct: expressed in transfected cells; host or cells: S. cerevisiae ole1Δ strain (W303 pdr1Δ pdr3Δ background), pRS316 plasmid, TDH3 promoter
T1 sequence (P21147 1-510): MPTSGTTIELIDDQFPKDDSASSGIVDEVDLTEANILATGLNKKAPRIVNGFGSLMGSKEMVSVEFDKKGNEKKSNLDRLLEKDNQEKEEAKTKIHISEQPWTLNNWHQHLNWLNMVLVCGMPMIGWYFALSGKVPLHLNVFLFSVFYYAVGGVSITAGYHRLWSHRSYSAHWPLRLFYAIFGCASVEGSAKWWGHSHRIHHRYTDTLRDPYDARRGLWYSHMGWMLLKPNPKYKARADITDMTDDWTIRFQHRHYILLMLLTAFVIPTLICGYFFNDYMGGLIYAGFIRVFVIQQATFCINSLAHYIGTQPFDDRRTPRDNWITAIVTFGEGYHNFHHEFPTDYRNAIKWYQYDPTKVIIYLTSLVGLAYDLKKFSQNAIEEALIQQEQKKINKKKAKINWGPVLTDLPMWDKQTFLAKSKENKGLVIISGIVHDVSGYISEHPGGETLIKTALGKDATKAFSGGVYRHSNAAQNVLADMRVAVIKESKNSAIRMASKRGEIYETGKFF
From the text: (§1) To generate yeast strains expressing SCD1 or SCD5 as the sole desaturase, the human SCD1 and SCD5 genes were cloned from cDNAs (Harvard PlasmID database Clone ID HsCD00340237 for SCD1 and HsCD00342695 for SCD5) into yeast plasmid pRS316 (ATCC 77145) between the yeast TDH3 promoter and the CYC1 terminator. The coding sequence of yeast OLE1 was also cloned into this plasmid). These clones were then transformed into the ole1Δ strain and plated on CSM-Ura media (CSM lacking uracil) with 2% glucose (w/v) and independent colonies were isolated and amplified.
(§2) All compound profiling experiments were performed using the same basic protocol. Different genetic backgrounds (e.g., gene deletions) or conditions (e.g., addition of oleic and palmitoleic acid) were replaced as indicated below.
(§3) Compound stocks (10 mM in 100% DMSO) were arrayed into 384 round well, v-bottom polypropylene plates and diluted according to indicated dilution factors. Compound administration was performed in two separate steps. First, 15 μL of CSM-Galactose (induces expression of toxic protein) was dispensed into clear 384 well assay plates using a MULTIDROP™ Combi reagent dispenser. The diluted compound stock plates were then applied to the assay plates using an automated workstation (Perkin Elmer JANUS™) outfitted with a 384 pin tool containing slotted pins that deliver 100 nL of compound. The cultures described above were then diluted to a 2× concentration (0.03 and 0.08 for alpha-synuclein and ApoE, final OD600 of 0.015 and 0.04) in CSM-Galactose. For wild-type and Ole1/SCD1/SCD5 plasmid-containing strains, the 2× cell density was 0.02. In all experiments, 15 μL culture was then dispensed into the pinned assay plate to achieve 30 μL of the 1×OD600 culture and a top drug concentration of […]. For 96-well assays (FIGS. 2A and 2B), compound dilutions in DMSO were generated in 96 well plates and 1 μL was manually pipetted into 96 well clear bottom assay plates.
(§4) For experiments using a plasmid-borne copy of Ole1, SCD1, or SCD5 (FIGS. 4B, 7, and 8), media lacking uracil (SX-Ura, where X is glucose, raffinose, or galactose), was used for all steps of the compound profiling protocol to ensure its maintenance throughout the assay.
(§5) After yeast delivery, assay plates were incubated under humidified conditions at 30° C. for 24 to 40 h. ApoE4 rescue experiments were stopped at 24 h, aSyn experiments at 40 h, Ole1 at 24 h, and SCD1/SCD5 at 40 h. The growth of yeast was monitored by reading the OD600 of each well using a microplate reader (Perkin Elmer EnVision™). For model rescue experiments, raw data were processed by background subtracting and calculating a fold-change relative to DMSO control [(EXP−0.035)/(DMSO−0.035)—where 0.035 is the OD600 contributed by an empty well containing 30 μL of media alone]. For growth inhibition of wild-type cells, raw data were processed by background subtracting and converting values to a percent of the nontreated condition for that strain [(EXP−0.035)/(DMSO−0.035)×100%].

human SCD5 = target: T2, human SCD5 (Homo sapiens, UniProt Q86SK9); assay: Growth of humanized yeast expressing human SCD5 as sole desaturase; assay type: cell-based, Saccharomyces cerevisiae expressing Saccharomyces cerevisiae expressing Saccharomyces cerevisiae expressing Saccharomyces cerevisiae expressing Saccharomyces cerevisiae expressing human SCD5 SCD5 SCD5 SCD5 SCD5; conditions: for half-maximal inhibitory concentration (IC50), SCD5 humanized strain: yeast growth
T2 construct: host or cells: S. cerevisiae ole1Δ strain (W303 pdr1Δ pdr3Δ background), pRS316 plasmid, TDH3 promoter
T2 sequence (Q86SK9 1-330): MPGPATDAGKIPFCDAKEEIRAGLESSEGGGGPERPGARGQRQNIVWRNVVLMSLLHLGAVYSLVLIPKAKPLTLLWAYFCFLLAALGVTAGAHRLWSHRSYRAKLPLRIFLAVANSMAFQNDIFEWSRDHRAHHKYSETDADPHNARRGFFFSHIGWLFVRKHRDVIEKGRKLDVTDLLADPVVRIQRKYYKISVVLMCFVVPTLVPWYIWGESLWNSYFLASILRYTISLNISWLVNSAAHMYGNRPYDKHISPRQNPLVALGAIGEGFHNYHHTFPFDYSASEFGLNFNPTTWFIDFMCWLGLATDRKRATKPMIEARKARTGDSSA
From the text: as §1, §2, §3, §4, §5

human SCD1 = target: T3, human SCD1 (Homo sapiens, UniProt O00767); assay: Growth of humanized yeast expressing human SCD1 as sole desaturase; assay type: cell-based, humanized yeastized yeastized yeastized yeast; conditions: for half-maximal inhibitory concentration (IC50), SCD1 humanized strain: yeast growth
T3 construct: host or cells: S. cerevisiae ole1Δ strain (W303 pdr1Δ pdr3Δ background), pRS316 plasmid, TDH3 promoter
T3 sequence (O00767 1-359): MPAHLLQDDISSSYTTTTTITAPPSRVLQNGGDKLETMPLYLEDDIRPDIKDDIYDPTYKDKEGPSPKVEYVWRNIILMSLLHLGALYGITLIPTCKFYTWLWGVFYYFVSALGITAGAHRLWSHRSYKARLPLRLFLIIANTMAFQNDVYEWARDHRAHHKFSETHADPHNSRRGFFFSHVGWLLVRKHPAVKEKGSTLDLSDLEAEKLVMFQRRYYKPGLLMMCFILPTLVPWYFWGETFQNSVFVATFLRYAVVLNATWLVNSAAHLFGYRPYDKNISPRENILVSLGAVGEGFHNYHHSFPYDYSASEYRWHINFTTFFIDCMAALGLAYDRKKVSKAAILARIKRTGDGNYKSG
Protocol: The coding sequence of yeast OLE1 was also cloned into this plasmid). These clones were then transformed into the ole1Δ strain and plated on CSM-Ura media (CSM lacking uracil) with 2% glucose (w/v) and independent colonies were isolated and amplified.
as §2
Compound administration was performed in two separate steps. First, 15 μL of CSM-Galactose (induces expression of toxic protein) was dispensed into clear 384 well assay plates using a MULTIDROP™ Combi reagent dispenser. […] The cultures described above were then diluted to a 2× concentration (0.03 and 0.08 for alpha-synuclein and ApoE, final OD600 of 0.015 and 0.04) in CSM-Galactose. For wild-type and Ole1/SCD1/SCD5 plasmid-containing strains, the 2× cell density was 0.02.
as §4
After yeast delivery, assay plates were incubated under humidified conditions at 30° C. for 24 to 40 h. ApoE4 rescue experiments were stopped at 24 h, aSyn experiments at 40 h, Ole1 at 24 h, and SCD1/SCD5 at 40 h. The growth of yeast was monitored by reading the OD600 of each well using a microplate reader (Perkin Elmer EnVision™).

[1] = tested on: cellular fatty acid desaturase activity (Ole1); assay: Quantitative lipid profiling of yeast by LC-MS/MS; assay type: cell-based, Saccharomyces cerevisiae
Protocol: Overnight cultures of yeast strain W303 pdr1Δ pdr3Δ were diluted into CSM media with 2% (w/v) raffinose, OD600 0.25, and grown for 4 h before resuspending at an OD600 of 0.2 in CSM media with 2% (w/v) galactose and adding Compound 2 or DMSO at the indicated concentrations. Cells were grown for the indicated timepoints before centrifugation, washing once in PBS, and freezing pellets. Lipids were extracted from pellets by resuspending the pellets in 600 μL methanol, 300 μL water, and 400 μL chloroform, followed by cell lysis by vortexing with glass beads for 1 min. Samples were then centrifuged at 10,000×g for 10 min, and the bottom layer that formed (organic/lipids) was moved into a new tube and evaporated. Samples were then analyzed by LC/MS/MS using a Thermo Scientific Q Exactive™ Orbitrap™ coupled to a Dionex UltiMate® 3000 ultra-high performance liquid chromatography system, following the method described in Tafesse et al. PLoS Pathog. 11(10): e1005188, 2015.

Ole1/SCD = assay: Yeast growth inhibition in control / wild-type condition (OD600); assay type: cell-based, Saccharomyces cerevisiae; conditions: ApoE4 strain, non-inducing conditions, raffinose
From the text: Strain GMYF was constructed from the ABC16/Green monster strain described in Suzuki et al. Nat. Methods 8(2):159-164, 2011. In this strain, YAP1 was deleted using a HIS3-MX6 cassette, and FLR1 was deleted using a NAT-MX6 cassette using standard methods. The knockout cassettes were PCR-amplified from plasmid templates (see, e.g., Bahler et al. Yeast 14(10):943-951, 1998; Longtine et al. Yeast 14(10):953-961, 1998) and transformed into yeast using lithium acetate-based transformation (Gietz et al. Methods Mol. Biol. 1205:1-12, 2014). The yap1::his3 deletion strain was selected on media lacking histidine and flr1::NAT on plates containing 100 μg/mL nourseothricin. All strains were confirmed by diagnostic PCR. Strain W303 pdr1Δ pdr3Δ was constructed from W303-1A (American Type Culture Collection (ATCC) 208352) by deleting PDR1 and PDR3 with kan-MX6 cassettes separately in MATa and MATα W303a isolates, mating, sporulating, and identifying the double deletion haploids by tetrad dissection and identification of non-parental ditype tetrads. Strain W-erg3 was derived from W303 pdr1Δ pdr3 by deleting SNQ2 with NAT-MX6, YAP1 with HIS3-MX6, and ERG3 with BleMX. […]
(§6) After yeast delivery, assay plates were incubated under humidified conditions at 30° C. for 24 to 40 h. […] The growth of yeast was monitored by reading the OD600 of each well using a microplate reader (Perkin Elmer EnVision™). […]

[2] = tested on: apolipoprotein E4 (ApoE4) Alzheimer's disease yeast model; assay: ApoE4 yeast model rescue (growth, OD600); assay type: cell-based, Saccharomyces cerevisiae; conditions: 12-point dose
From the text: Strain ApoE-mga2Δ was generated by amplifying 1000 base pairs (bp) upstream and downstream of the MGA2 ORF in a strain in which MGA2 was deleted using a G418 (GENETICIN®) resistance cassette (kanMX) (Piotrowski et al. Proc. Natl. Acad. Sci. USA 112(12):E1490-1497, 2015) and transforming the resulting deletion cassette into the ApoE4 strain in the BY4741 (ATCC 201388) genetic background. The ApoE strain is described, for example, in International Patent Application Publication No. WO 2016/040794, which is incorporated herein by reference in its entirety.
as §2
Yeast were cultured using standard techniques in complete synthetic media (CSM) and yeast nitrogen base supplemented with 2% (w/v) carbon source (glucose, raffinose, or galactose) to regulate the expression of the toxic disease protein. An initial starter culture was inoculated in 3 mL CSM-Glucose media and incubated overnight in a 30° C. shaker incubator (225 rpm). […]
as §6

[3] = percent of DMSO-treated condition

Structure (SMILES) | growth inhibition of yeast expressing OLE1 (yeast OLE1) | half-maximal inhibitory concentration (IC50), SCD5 humanized strain (human SCD5) | half-maximal inhibitory concentration (IC50), SCD1 humanized strain (human SCD1) | further results
O=C(O)Cn1nnc(-c2cc(N3CCC(Oc4cc(F)ccc4Br)CC3)no2)n1 [MK-8245] | resistant | low nanomolar |  | 
CNC(=O)c1cccc(NC(=O)N2CCC(Oc3ccccc3Cl)CC2)c1 [Compound A939572] | resistant | low nanomolar | low nanomolar | 
Cc1nn(C)c2cc(-c3noc(C4CCN(C(=O)CNC(=O)c5ccccc5)CC4)n3)ccc12 [Compound 2, N-(2-(4-(3-(1,3-dimethyl-1H-indazol-6-yl)-1,2,4-oxadiazol-5-yl)piperidin-1-yl)-2-oxoethyl)benzamide] |  |  |  | decrease in abundance of unsaturated lipid phosphatidylcholine 16:1, 18:1 ([1]; 8 h treatment, wild-type yeast): > 12 fold; increase in abundance of saturated lipid phosphatidylcholine 26:0 ([1]; 8 h treatment, wild-type yeast): > 300 fold; lipid desaturation ([1]; yeast cells): inhibited lipid desaturation
C[C@@H]1C[C@@H]([C@H](O)CC2CC(=O)NC(=O)C2)C(=O)[C@@H](C)C1 [Cyclohexamide, cycloheximide] | inhibited growth of all three strains with the same potency |  |  | growth inhibition of SCD5-expressing yeast (human SCD5; [3]): inhibited growth of all three strains with the same potency; growth inhibition of SCD1-expressing yeast (human SCD1; [3]): inhibited growth of all three strains with the same potency
COc1ccc(-c2noc(C3CCN(C(=O)CNC(=O)c4ccccc4)CC3)n2)cc1OC [Compound 1, N-(2-(4-(3-(3,4-dimethoxyphenyl)-1,2,4-oxadiazol-5-yl)piperidin-1-yl)-2-oxoethyl)benzamide] |  |  |  | growth in control (non-inducing) condition (Ole1/SCD): growth decreased at this same concentration; rescue dose-response in ApoE4 model (OD600) [2]: bell-shaped dose-response curve
Cc1nnc(-c2ccc(N3CCC(Oc4ccccc4C(F)(F)F)CC3)nn2)s1 [MF-438] | resistant | low nanomolar | low nanomolar | 
